# Results: patent EP0117302A2, “Phenothiazine derivatives” (THE WELLCOME FOUNDATION LIMITED, priority 1982, dated 1984)
# Read-outs that look alike come from different tables or passages of the source.
# Columns and labels:
# [1] = system: histamine; experiment: In vitro antihistamine activity: histamine concentration-response curves on isolated ileum longitudinal muscle, Schild plot; assay type: cell-based, guinea-pigs; settings: guinea-pig ileum longitudinal muscle, one hour incubation with test compound, antagonism of histamine; for pA2: 60 min; for Kb: Cavia porcellus, 1 h, read-out: pA2 (converted)
# Method: A. In vitro antihistamine activity: The longitudinal muscle was isolated from the intact ileum of guinea-pigs (Hartley, male 250-400g) and placed in an organ bath under 300 mg tension. […] Following washing, the tissues were incubated for one hour with the test compound and then a second histamine concentration-response curve was run. […] Regression of Log (dr-1) on Log [B], where dr is an equiactive response in the presence and absence of antagonist and [B] is the molar concentration of antagonist, allowed an estimate of pA2, i.e. the negative log of the concentration of antagonist which shifts the control histamine concentration response curve 2X to the right.
# [2] = system: compound 48/80; experiment: Inhibition of compound 48/80 induced anaphylactoid reaction; assay type: in vivo, Wister rats; settings: Rattus norvegicus, rats, compound administered 2 hrs. prior to test, read-out: ED50 (dose providing 50% protection against death induced by compound 48/80)
# Method: Non-fasted, Wister rats (180-300g).were dosed with the test compound, (i.p. or p.o.) 2 hours before compound 48/80 challenge. One hour prior to challenge, 5 mg/kg i.p. of propranolol was administered. The anaphylactoid inducing agent, compound 48/80, was given intravenously at 2 mg/kg and the animals were monitored for symptoms of respiratory distress.
# Data were analyzed by Probit determinations. the response was quantitated by determining the dose of test compound which protected 50% of the animals from death at a given time point.
# Agents which block the effects of compound 48/80 are commonly classified as inhibitors of anaphylactic mediators or inhibitors of the release of anaphylic mediators.
# [3] = system: histamine; experiment: In vivo antihistaminic activity: protection against histamine aerosol challenge; settings: Cavia porcellus, po, guinea pigs
# Method: B. In vivo Antihistaminic Activity: Guinea pigs (Hartley, male, 300-350 g) were fasted for 20 hours and then dosed p.o. or i.p. with the test compound. One hour after dosing, on an individual basis, the guinea pigs were placed in a clear plastic chamber which was saturated and continually gassed with 0.25% histamine from an aerosol nebulizer. The guinea pigs were monitored for signs of histamine anaphylaxis (e.g. cough, sneeze, strong abdominal movements, cyanoses or loss of righting). […] ED50's for protection against histamine were calculated by probit analysis. […] Complete protection was defined as no histamine symptoms for six minutes in the aerosol chamber (approximately 10X the collapse time of the control animals).
# [4] = Pharmacokinetic studies: relative distribution in brain and plasma; assay type: in vivo; settings: rodents, compared with promethazine
# [5] = Acute toxicity (approximate LD50); settings: rat, in vivo, rats
Compound,ED50 ([2]; ip) [mg/kg],Kb [1] [nM],other results
4 (or 1)-(2-carboxyethyl)-10-(2-dimethylaminopropyl)-phenothiazine [Compound I],,,pA2 [1]: 7.2
10-(2-dimethylaminopropyl)phenothiazine-4(or 1)-carboxylic acid [Compound G],,,pA2 [1]: 6.8
"COc1ccc(CCN2CCC(Nc3nc4ccccc4n3Cc3ccc(F)cc3)CC2)cc1 [Astemizole, reference compound]",1.08,,
"CC(CN1c2ccccc2Sc2ccc(/C=C/C(=O)O)cc21)N(C)C (stereo not drawn) [Compound A, trans-β-[10-(2-Dimethylaminopropyl)phenothiazin-2-yl]acryiic acid]",2.64,6.31,"ED50 ([3]; 0.25% histamine aerosol, 1 hour post-dosing, read-out: ED50): 1.7 mg/kg; ED50 ([3]; 24 hours protection, read-out: ED50 for 24 hours protection): 11 mg/kg; brain penetration [4]: do not readily penetrate the brains of rodents"
"CC(CN1c2ccccc2Sc2ccc(CC(=O)O)cc21)N(C)C (centres unmarked) [Compound B, 2-[10-(2-Dimethylaminopropyl)phenothiazin-2-yl]acetic acid]",0.89,0.398,"ED50 ([3]; 0.25% histamine aerosol, 4 hours post dosing, read-out: ED50): 0.3 mg/kg; ED50 ([2]; po): 1.2 mg/kg; LD50 ([5]; ip): ~210 mg/kg; LD50 ([5]; po): > 500 mg/kg; brain penetration [4]: do not readily penetrate the brains of rodents"
"CC(C(=O)O)c1ccc2c(c1)N(CC(C)N(C)C)c1ccccc1S2 (centres unmarked) [Compound C, 2-[10-(2-Dimethylaminopropyi)phenothiazin-2-yl]propionic acid]",1.43,7.94,
"CC(CN1c2ccccc2Sc2cc(C(=O)O)ccc21)N(C)C (centres unmarked) [Compound D, 10-(2-dimethylaminopropyI)phenothiazine-3-carboxylic acid]",,631,
"CC(CN1c2ccccc2Sc2cc(/C=C/C(=O)O)ccc21)N(C)C (centres unmarked) [Compound E, E-3-(2-carboxyvinyl)-10-(2-dimethylaminopropyl)-phenothiazine]",3.11,631,
"CC(CN1c2ccccc2Sc2cc(CCC(=O)O)ccc21)N(C)C (centres unmarked) [Compound F, 3-(2-carboxyethyl)-10-(2-dimethylaminopropyl)phenothiazine]",,6310,
CCOC(=O)Cc1ccc2c(c1)N(CC(C)N(C)C)c1ccc(Cl)cc1S2 (centres unmarked) [Compound J],,1,
"CC(CN1c2ccc(Cl)cc2Sc2ccc(CC(=O)O)cc21)N(C)C (centres unmarked) [Compound K, [7-Chloro-10-(2-dimethylaminopropyl)-2-phenothiazinyl]acetic acid]",,1.58,
"CCOC(=O)Cc1ccc2c(c1)N(CCN(C)C)c1ccc(C)cc1S2 [Compound L, Ethyl [10-(2-dimethylaminoethyl)-7-methyl-2-phenothiazinyl]acetate]",,0.794,
"Cc1ccc2c(c1)Sc1ccc(CC(=O)O)cc1N2CCN(C)C [Compound M, [10-(2-Dimethylaminoethyl)-7-methyl-2-phenothiazinyl]acetic acid]",,1.26,
"CCOC(=O)C(C)(C)c1ccc2c(c1)N(CC(C)N(C)C)c1ccccc1S2 (centres unmarked) [Compound O, Ethyl 2-[10-(2-dimethylaminopropyl)-2-phenothiazinyl]-2-methylpropionate]",,3.16,
CC(CN1c2ccccc2Sc2ccc(C(C)(C)C(=O)O)cc21)N(C)C (centres unmarked) [Compound P],,1.58,
"CN(C)CCCN1c2ccccc2Sc2ccc(C(C)(C)C(=O)O)cc21 [Compound Q, 2-[10(3-dimethylaminopropyl)-2-phenothiazinyl]-2-methylpropionic acid]",,2,
"CC(CN1c2ccccc2Sc2ccc(C(=O)O)cc21)N(C)C (centres unmarked) [Compound S, 10-(2-Dimethylaminopropyl)phenothiazin-2-yl-carboxylic acid]",,1,
"CN1CCC(=C2c3ccccc3CC(=O)c3sccc32)CC1 [Ketotifen, reference compound]",0.87,,
E-4 (or 1)-(2-carboxyvinyl)-10-(2-dimethylaminopropyl)phenothiazine [Compound H],,,pA2 [1]: 7.8
[10-(2-diethylaminoethyl)-7-fluoro-2-phenothiaznyl]acetic acid [Compound N],,,pA2 [1]: 8.6
